Data taken from ChEMBL document CHEMBL1201862, “PubChem BioAssay data set” (2004).
Active and inactive are the calls of the source.

Columns and labels:
[1] = molecular target: T1, Heat shock factor protein 1 (Mus musculus, UniProt P38532); test: HSF1 potentiators in luciferase reporter cells, confirmation, cell-based, NIH3T3, luminescence, dose retest (AID 435004); format: functional;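 further: stress induced by proteasome inhibitor MG132 added 30 min after compound; luciferase reporter driven by HSF1 response element in NIH3T3 cells; actives raise luminescence as potentiators of the MG132 stress response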
T1 sequence (P38532 whole entry): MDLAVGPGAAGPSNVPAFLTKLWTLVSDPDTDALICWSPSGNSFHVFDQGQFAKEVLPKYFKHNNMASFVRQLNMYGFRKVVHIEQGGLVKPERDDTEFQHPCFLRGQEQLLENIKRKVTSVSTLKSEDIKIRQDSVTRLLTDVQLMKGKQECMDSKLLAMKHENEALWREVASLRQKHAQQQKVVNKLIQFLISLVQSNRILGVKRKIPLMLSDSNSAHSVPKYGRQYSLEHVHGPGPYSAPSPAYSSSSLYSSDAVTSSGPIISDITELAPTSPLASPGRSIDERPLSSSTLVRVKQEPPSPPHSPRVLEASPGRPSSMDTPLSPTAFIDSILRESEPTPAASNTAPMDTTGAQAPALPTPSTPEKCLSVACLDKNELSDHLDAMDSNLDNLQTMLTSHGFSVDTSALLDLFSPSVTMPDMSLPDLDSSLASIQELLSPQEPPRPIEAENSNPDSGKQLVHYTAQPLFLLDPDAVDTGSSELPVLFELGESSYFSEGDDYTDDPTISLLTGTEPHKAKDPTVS

[2] = molecular target: Mitochondrial peptide methionine sulfoxide reductase (Bos taurus, UniProt P54149); test: Absorbance-based biochemical high throughput dose response assay for activators of Methionine sulfoxide reductase A (MsrA).; format: functional
Mitochondrial peptide methionine sulfoxide reductase, sequence (P54149 whole entry): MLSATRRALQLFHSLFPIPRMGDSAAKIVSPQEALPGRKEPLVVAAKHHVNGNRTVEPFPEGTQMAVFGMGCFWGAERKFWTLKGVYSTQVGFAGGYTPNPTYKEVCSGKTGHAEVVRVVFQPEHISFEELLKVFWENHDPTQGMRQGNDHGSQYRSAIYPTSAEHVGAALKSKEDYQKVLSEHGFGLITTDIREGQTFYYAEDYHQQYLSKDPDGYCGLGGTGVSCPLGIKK

[3] = molecular target: T2, Zinc finger protein mex-5 (Caenorhabditis elegans, UniProt Q9XUB2); test: MEX-5/TCR-2 RNA interaction inhibitors, dose response, biochemical, C. elegans, fluorescence polarization (AID 1960)
T2 sequence (Q9XUB2 whole entry): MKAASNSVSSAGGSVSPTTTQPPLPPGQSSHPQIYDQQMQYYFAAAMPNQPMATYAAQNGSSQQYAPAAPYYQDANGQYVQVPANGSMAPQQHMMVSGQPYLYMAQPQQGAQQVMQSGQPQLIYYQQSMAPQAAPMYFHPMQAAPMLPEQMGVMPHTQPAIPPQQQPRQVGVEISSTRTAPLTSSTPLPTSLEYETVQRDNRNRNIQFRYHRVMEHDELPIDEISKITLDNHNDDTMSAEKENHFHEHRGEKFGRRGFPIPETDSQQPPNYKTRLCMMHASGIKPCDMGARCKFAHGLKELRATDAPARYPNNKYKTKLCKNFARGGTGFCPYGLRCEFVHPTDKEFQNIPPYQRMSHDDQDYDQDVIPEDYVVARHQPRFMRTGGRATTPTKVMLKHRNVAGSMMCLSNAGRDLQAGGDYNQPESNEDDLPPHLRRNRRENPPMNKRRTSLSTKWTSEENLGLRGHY

[4] = molecular target: NACHT, LRR and PYD domains-containing protein 1 (Homo sapiens, UniProt Q9C000); test: NALP1 inhibitors in yeast, dose response, luminescent (AID 488860); format: functional
NACHT, LRR and PYD domains-containing protein 1, sequence (Q9C000 1-1212 limits assumed): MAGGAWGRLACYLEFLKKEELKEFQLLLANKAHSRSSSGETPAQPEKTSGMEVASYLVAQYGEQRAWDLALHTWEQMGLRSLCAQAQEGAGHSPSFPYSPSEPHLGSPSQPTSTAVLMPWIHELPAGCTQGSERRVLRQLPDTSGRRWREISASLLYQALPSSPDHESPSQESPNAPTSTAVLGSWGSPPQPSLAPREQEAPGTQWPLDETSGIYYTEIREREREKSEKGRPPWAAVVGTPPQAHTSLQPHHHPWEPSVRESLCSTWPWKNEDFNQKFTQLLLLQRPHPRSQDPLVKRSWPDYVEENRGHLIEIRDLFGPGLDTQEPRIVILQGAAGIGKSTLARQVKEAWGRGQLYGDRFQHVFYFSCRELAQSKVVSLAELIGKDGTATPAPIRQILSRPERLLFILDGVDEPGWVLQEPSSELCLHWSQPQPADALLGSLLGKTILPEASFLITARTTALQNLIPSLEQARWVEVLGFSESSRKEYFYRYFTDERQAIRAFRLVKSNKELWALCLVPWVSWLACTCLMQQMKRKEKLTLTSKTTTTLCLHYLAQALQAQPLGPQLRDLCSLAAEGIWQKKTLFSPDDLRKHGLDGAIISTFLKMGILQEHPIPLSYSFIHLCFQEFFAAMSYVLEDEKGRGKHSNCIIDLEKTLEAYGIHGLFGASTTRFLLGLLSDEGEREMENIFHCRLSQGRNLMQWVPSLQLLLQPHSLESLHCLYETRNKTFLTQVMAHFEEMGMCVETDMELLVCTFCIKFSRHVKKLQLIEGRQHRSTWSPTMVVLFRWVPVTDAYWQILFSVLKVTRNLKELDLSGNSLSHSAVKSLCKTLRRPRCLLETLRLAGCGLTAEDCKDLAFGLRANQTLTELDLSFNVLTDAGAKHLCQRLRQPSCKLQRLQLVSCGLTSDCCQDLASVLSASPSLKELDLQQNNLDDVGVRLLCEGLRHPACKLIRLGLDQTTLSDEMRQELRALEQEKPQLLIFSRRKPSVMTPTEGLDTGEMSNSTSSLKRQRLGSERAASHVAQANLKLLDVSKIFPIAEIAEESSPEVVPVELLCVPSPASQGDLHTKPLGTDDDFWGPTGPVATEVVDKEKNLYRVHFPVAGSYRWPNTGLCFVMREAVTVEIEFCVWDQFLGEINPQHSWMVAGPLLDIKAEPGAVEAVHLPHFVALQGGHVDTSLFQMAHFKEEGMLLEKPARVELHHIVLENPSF
NACHT, LRR and PYD domains-containing protein 1, sequence (Q9C000 1213-1473 limits assumed): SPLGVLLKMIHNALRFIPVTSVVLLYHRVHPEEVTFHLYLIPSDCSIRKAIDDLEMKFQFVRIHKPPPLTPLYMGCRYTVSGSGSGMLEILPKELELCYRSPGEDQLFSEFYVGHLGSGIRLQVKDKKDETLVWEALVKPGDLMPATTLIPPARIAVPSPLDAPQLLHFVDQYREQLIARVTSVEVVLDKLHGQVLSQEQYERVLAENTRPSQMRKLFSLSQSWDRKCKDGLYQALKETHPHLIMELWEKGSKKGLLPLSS

[5] = molecular target: T3, Caspase-6 (Homo sapiens, UniProt P55212); test: human caspase-6 inhibitors, dose response, biochemical, VEID-R110 fluorescence, cherry-pick (AID 720632)
T3 sequence (P55212 whole entry): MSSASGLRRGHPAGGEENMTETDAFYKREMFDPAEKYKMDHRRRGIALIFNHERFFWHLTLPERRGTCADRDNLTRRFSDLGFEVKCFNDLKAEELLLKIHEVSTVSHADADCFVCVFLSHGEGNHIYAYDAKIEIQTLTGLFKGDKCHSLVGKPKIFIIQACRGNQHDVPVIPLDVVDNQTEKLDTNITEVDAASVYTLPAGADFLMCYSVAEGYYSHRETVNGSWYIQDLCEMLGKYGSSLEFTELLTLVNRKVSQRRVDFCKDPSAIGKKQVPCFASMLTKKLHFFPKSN

[6] = molecular target: T4, RNA-binding protein pos-1 (Caenorhabditis elegans, UniProt G5EF15); test: inhibitors of POS-1/mex-3 RNA binding, dose response, biochemical, fluorescence polarization (AID 1964);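 further: purified POS-1 fused to maltose binding protein made in E. coli; potency of compounds blocking POS-1 binding to fluorescent RNA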
T4 sequence (G5EF15 whole entry): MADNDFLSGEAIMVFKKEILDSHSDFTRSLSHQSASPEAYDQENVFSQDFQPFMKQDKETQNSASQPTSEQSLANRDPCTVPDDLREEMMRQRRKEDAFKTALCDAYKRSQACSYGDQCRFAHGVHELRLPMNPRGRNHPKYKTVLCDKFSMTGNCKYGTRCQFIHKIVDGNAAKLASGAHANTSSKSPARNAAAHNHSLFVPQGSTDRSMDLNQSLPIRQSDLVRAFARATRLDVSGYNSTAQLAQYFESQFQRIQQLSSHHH

[7] = molecular target: T5, Sentrin-specific protease 8 (Homo sapiens, UniProt Q96LD8); format: functional
T5 sequence (Q96LD8 whole entry): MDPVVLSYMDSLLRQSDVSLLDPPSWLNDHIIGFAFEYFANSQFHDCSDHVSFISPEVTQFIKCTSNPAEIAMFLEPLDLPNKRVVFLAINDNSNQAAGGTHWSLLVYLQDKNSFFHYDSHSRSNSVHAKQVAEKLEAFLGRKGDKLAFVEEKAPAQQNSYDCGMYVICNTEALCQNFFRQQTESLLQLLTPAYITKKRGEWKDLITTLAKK

[8] = molecular target: Homeodomain-interacting protein kinase 2 (Homo sapiens, UniProt Q9H2X6); format: functional;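 further: measured within a kinome-wide kinase profiling panel, HIPK2 being one panel member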
[9] = molecular target: Serine/threonine-protein kinase 17A (Homo sapiens, UniProt Q9UEE5); format: functional
Serine/threonine-protein kinase 17A, sequence (Q9UEE5 whole entry): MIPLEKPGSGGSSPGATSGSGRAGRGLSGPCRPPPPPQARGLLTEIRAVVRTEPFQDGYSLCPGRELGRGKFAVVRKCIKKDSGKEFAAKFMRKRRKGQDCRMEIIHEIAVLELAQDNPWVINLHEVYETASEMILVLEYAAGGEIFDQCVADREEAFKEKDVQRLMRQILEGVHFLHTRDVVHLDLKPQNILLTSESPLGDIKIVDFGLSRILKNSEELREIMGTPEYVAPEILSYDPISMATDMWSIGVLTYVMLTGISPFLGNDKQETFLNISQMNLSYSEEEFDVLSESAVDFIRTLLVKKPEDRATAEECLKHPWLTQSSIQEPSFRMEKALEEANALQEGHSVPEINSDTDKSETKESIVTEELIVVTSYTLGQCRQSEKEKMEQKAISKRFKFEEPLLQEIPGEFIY

[10] = molecular target: Mitogen-activated protein kinase kinase kinase kinase 5 (Homo sapiens, UniProt Q9Y4K4); format: functional;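 further: measured as one member of a kinome-spanning kinase panel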
[11] = molecular target: Serine/threonine-protein kinase N2 (Homo sapiens, UniProt Q16513); format: functional
Serine/threonine-protein kinase N2, sequence (Q16513 whole entry): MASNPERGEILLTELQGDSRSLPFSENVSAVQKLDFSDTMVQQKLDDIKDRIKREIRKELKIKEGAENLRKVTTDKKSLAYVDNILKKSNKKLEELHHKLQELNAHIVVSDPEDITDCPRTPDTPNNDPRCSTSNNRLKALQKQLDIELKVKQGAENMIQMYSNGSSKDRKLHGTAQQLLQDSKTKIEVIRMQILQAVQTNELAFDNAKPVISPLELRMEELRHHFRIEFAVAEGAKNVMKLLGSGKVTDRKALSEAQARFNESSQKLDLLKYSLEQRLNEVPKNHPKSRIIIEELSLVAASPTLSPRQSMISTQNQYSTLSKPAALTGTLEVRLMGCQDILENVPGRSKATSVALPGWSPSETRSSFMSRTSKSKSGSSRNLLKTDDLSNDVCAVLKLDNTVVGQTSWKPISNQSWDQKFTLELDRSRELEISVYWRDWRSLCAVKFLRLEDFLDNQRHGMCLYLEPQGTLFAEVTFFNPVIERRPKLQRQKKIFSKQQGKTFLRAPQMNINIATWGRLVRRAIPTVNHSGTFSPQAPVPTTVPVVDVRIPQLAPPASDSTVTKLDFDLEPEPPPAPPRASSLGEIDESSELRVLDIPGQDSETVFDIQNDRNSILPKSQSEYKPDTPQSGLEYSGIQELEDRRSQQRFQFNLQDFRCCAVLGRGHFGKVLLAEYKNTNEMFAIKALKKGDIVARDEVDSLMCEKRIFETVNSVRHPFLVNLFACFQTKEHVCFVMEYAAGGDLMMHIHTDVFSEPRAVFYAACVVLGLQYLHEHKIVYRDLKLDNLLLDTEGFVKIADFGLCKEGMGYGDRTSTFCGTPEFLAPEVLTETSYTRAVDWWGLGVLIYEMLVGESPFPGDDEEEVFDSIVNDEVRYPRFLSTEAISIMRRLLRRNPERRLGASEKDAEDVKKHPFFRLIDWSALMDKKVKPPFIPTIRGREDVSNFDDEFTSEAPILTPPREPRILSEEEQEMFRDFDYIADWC

[12] = molecular target: Misshapen-like kinase 1 (Homo sapiens, UniProt Q8N4C8); format: functional;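 further: kinome panel screen with MINK as the panel member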
[13] = molecular target: Mitogen-activated protein kinase kinase kinase 10 (Homo sapiens, UniProt Q02779); test: Navigating the Kinome. Panel member name: MAP3K10; format: functional
[14] = molecular target: Large T antigen (Simian virus 40, UniProt P03070); format: functional, Betapolyomavirus macacae;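 further: Confirmatory-stage PubChem screen for compounds that inhibit SV40 T antigen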
Large T antigen, sequence (P03070 whole entry): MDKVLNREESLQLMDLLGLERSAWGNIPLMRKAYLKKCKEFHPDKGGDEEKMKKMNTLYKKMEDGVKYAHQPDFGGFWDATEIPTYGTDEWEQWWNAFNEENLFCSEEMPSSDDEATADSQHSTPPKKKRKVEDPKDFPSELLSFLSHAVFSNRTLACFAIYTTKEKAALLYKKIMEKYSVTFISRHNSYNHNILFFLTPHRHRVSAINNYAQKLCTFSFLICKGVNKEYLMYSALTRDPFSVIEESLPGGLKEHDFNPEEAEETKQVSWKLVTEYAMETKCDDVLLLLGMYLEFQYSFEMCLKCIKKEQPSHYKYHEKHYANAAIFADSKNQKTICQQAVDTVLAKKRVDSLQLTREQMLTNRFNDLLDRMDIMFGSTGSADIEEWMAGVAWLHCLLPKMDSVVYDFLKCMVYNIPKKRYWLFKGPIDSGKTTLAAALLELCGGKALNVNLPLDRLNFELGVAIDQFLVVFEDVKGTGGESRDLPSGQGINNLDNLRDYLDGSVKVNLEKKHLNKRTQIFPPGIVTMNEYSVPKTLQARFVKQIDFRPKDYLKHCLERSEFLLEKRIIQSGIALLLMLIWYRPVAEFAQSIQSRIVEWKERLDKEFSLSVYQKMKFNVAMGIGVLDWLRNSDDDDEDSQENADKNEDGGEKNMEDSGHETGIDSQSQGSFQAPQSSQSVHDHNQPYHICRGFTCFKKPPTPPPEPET

[15] = molecular target: Focal adhesion kinase 1 (Homo sapiens, UniProt Q05397); format: functional;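 further: measured as one member of a kinome panel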
[16] = molecular target: Serine/threonine-protein kinase SIK2 (Homo sapiens, UniProt Q9H0K1); test: Navigating the Kinome. Panel member name: SIK2; format: functional
Serine/threonine-protein kinase SIK2, sequence (Q9H0K1 whole entry): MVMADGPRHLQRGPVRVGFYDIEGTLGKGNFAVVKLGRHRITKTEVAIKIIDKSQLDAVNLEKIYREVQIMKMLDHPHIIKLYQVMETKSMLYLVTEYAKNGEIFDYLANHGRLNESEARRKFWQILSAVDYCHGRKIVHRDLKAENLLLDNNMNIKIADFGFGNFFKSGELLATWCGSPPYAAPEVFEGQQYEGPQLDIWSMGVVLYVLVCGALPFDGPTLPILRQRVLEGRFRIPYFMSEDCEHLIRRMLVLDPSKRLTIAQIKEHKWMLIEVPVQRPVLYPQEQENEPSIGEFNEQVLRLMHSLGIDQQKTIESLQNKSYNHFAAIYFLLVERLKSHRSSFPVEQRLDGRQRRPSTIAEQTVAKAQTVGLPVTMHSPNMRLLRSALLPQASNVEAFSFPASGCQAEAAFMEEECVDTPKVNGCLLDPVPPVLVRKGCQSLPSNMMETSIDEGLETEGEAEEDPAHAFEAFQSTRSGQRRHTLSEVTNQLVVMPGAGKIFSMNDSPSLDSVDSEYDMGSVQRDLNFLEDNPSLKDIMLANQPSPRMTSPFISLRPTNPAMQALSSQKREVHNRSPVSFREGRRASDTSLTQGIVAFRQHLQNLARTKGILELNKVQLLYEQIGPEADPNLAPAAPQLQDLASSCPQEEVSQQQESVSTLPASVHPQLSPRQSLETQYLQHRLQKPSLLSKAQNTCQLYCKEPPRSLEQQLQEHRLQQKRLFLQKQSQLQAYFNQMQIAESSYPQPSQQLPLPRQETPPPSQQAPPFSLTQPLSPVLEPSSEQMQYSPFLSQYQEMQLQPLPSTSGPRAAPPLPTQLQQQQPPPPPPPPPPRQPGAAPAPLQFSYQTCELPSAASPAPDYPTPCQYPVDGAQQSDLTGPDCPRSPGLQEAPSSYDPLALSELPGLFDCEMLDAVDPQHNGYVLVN

[17] = molecular target: Proto-oncogene tyrosine-protein kinase ROS (Homo sapiens, UniProt P08922); format: functional;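 further: ROS1 tested as one member of a kinome-wide kinase panel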
[18] = molecular target: MAP/microtubule affinity-regulating kinase 3 (Homo sapiens, UniProt P27448); format: functional;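 further: MARK3 affinity measured as one member of a kinome panel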
[19] = molecular target: Mast/stem cell growth factor receptor Kit (Homo sapiens, UniProt P10721); format: functional;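 further: KIT entry within a kinase panel assay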

c1ccc2nc3cc4[nH]cnc4cc3nc2c1
EC50 [1]: 15.5 µM (active)
EC50 [2]: 53 µM (inactive)
EC50 [3]: 1.74 µM (inconclusive)
IC50 [4]: > 100 µM (inactive)
AC50 [5]: 33 µM (active)
EC50 [6]: 7.59 µM (inconclusive)
IC50 [7]: 12.5 µM (active)

CCCCC(=O)Nc1cc(-c2c[nH]c3ncccc23)cc(Cl)n1
Ki [8]: > 3.98 µM (inactive)
Ki [9]: > 3.16 µM (inactive)
Ki [10]: > 3.98 µM (inactive)
Ki [11]: > 5.01 µM (inactive)
Ki [12]: > 2.51 µM (inactive)

Oc1ccc(-c2nc(-c3ccncc3)c(-c3ccc(F)cc3)[nH]2)cc1 [SB-202190]
Ki [13]: > 3.16 µM (inactive)
IC50 [14]: 4.87 µM (active)
Ki [15]: > 3.98 µM (inactive)
Ki [16]: > 3.98 µM (inactive)
Ki [17]: 2.51 µM (active)
Ki [18]: > 5.01 µM (inactive)
Ki [19]: > 6.31 µM (inactive)
